Reference: PMC12062780, “Validation of ion mobility spectrometry ‐ mass spectrometry as a screening tool to identify type II kinase inhibitors of FGFR1 kinase” (Rapid Communications in Mass Spectrometry, 2021)

Columns and labels:
FGFR1 [1] = molecular target: T1, FGFR1 (Homo sapiens, UniProt P11362, C488A/C584S); test: ESI-CIU-IMS-MS collision-induced unfolding of FGFR1 after incubation with inhibitor; conditions: for IMS-MS Drift Time of unfolded conformer / Intensity vs base peak (5.5 ms) of the unfolded conformer at ca 7.6 ms: 11+ FGFR1 ions
T1 construct: made in house; host or cells: E. coli
T1 sequence (P11362 with tags, fused parts or gaps C488A/C584S): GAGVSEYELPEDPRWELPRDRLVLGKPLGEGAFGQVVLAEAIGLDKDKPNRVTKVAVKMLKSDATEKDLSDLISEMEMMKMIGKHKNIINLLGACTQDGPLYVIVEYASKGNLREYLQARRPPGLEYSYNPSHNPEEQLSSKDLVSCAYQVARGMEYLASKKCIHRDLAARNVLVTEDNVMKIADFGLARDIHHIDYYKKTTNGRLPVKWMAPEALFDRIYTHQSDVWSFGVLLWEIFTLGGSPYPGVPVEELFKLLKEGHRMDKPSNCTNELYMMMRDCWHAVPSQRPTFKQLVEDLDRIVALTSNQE
Method: FGFR1 (2 μM) and inhibitors (8 μM) were incubated separately in ammonium acetate (100 mM) for 1 h at room temperature prior to analysis. A Synapt G2‐S travelling‐wave ion mobility spectrometry ‐ mass spectrometer equipped with a nano‐ESI source was used for all sample analyses (Waters Corp., Manchester, UK). Samples were analysed by nano‐ESI from in‐house fabricated gold–palladium‐coated borosilicate capillaries assembled using a P‐97 micropipette puller (Sutter Instrument Co., Novato, CA, USA) and a sputter coater (Polaron SC7620; Quorum Technologies Ltd, Kent, UK). The following instrument parameters were set: capillary voltage 1.8 kV, cone voltage 30 V, source temperature 100°C, backing pressure 9.3 mbar, travelling‐wave height 40 V, travelling‐wave speed 500 m/s, IMS He gas flow rate 150 mL/min, IMS N2 gas flow rate 50 mL/min. For the collision‐induced unfolding (CIU) experiments, the trap voltage was increased to 21 V or 24 V and the transfer voltage was maintained at 4 V. Data were processed by use of the MassLynx (version 4.1) and Driftscope software supplied with the mass spectrometer. The m/z scale was calibrated using a separate introduction of aqueous CsI at 1 mg/mL.
To see if type I and type II inhibitors affect the conformational profile of FGFR1, the protein was incubated with each inhibitor separately prior to nano‐ESI‐CIU‐IMS‐MS analysis. All charge‐state ions arising from the FGFR1–ligand complexes (selected individually by the initial quadrupole analyser) were subjected to CIU‐induced unfolding in the trap prior to IMS separation.
During these analyses, the trap energy was increased and protein unfolding was monitored by examining the drift times of the protein ions during their transit through the IMS cell.

[2] = molecular target: T2, Human FGFR1 consisting of residues 457–765 with C488A and C584S mutations (Homo sapiens, UniProt P11362, C488A/C584S); test: Isothermal titration calorimetry (ITC) of inhibitor binding to FGFR1; conditions: 25°C, type I TKIs
T2 construct: made in house; host or cells: E. coli
T2 sequence (P11362 with tags, fused parts or gaps C488A/C584S): as above
Method: ITC was carried out using a Microcal ITC200 instrument (GE Healthcare Biosciences, Amersham, UK). FGFR1 was dialysed against the experimental buffer (20 mM Tris/HCl, 100 mM NaCl and 5 mM DTT pH 7.8) prior to titration with inhibitor. Inhibitors were dissolved in DMSO, and experimental buffer DMSO concentration was matched. Titrations were performed at 25°C with 2 μL injections of inhibitor (200 μM) every 180 s into the cell containing FGFR1 (20 μM) with stirring at 1000 rpm. Results were analysed in Origin (OriginLab, Northampton, MA, USA) and fitted using a one‐site binding model.

FGFR1 [3] = molecular target: T1, FGFR1; test: Microscale thermophoresis (MST), label-free; format: binding; conditions: type I TKI; MST per b30 and Figure S5 (Figure 2 legend says ITC), 25°C
Method: Thermophoresis was used to measure the binding interactions between FGFR1 and compounds. The MST measurements were performed using a Monolith NT.LabelFree instrument (NanoTemper Technologies GmbH, Munich, Germany). In this instrument, an infrared laser beam and light (fluorescence excitation and emission) was coupled with a dichroic mirror and focused on the sample. When the IR‐laser was on, it heated a small area of the sample and created a temperature gradient. The total fluorescence of the focused area was measured when the IR‐laser was off (Fcold) and on (Fhot). The capillaries were filled with the sample (less than 5 μL was required for each capillary). The following MST settings were used: LED power 70%, MST laser power 40%, fluorescence before (5 s), MST on (30 s), fluorescence after (3 s). […] After the capillary scan thermophoresis FGFR1 was measured for 30 s in the presence of the varied concentrations of compound. Fnorm = Fhot/Fcold was analysed and plotted by NT Analysis software (NanoTemper Technologies GmbH). Fraction bound = (Fnorm – Fnorm [unbound])/(Fnorm (bound) – Fnorm (unbound)) was calculated and the binding data were fitted to a Hill function (n = 1) using the instrument analysis software. To eliminate artifacts caused by labelling or modifying proteins, the fluorescence of tryptophan residues was used to monitor the local protein concentration. […]

FGFR1 [4] = test system: FGFR1; parameters: method as in PMID 22141913; conditions: cited from earlier work
FGFR1 kinase domain = molecular target: T3, FGFR1 kinase domain (Homo sapiens, UniProt P11362, C488A/C584S); test: X-ray crystallography of FGFR1–ligand complexes (DFG loop status); format: binding; conditions: co-crystal structure
T3 construct: Human FGFR1 consisting of residues 457–765 with C488A and C584S mutations; made in house; host or cells: E. coli
T3 sequence (P11362 457-765 C488A/C584S): as the sequence (P11362 with tags, fused parts or gaps C488A/C584S) above, with G1L counted along it
Method: Data were integrated and scaled using XDS[23] and SCALA[24] as implemented within the autoPROC software package.[25] Data reduction and structure solution by molecular replacement were carried out using programs from the CCP4 software suite.[26] […] The protein–inhibitor complex model was refined using Buster,[28] interspersed with rounds of manual model building in Coot.[29]

FGFR1 [5] = conditions: read-out: in vitro IC50 against FGFR1; cited from earlier work

SMILES: CC(C)Oc1cc(Nc2ccnc(NCc3cc(C4CC4)no3)n2)n[nH]1 [Compound B]
- IMS-MS Drift Time of unfolded conformer (FGFR1 [1]; 21 V Trap): 7.5 ms
- Intensity vs base peak (5.5 ms) of the unfolded conformer at ca 7.6 ms (FGFR1 [1]; 21 V Trap): 29.2%
- IMS-MS Drift Time of unfolded conformer (FGFR1 [1]; 24 V Trap): 7.7 ms
- Intensity vs base peak (5.5 ms) of the unfolded conformer at ca 7.6 ms (FGFR1 [1]; 24 V Trap): 50.8%

SMILES: Cc1cc(Nc2nc(NCCc3cccnc3)ncc2Br)n[nH]1 [Compound C]
- IMS-MS Drift Time of unfolded conformer (FGFR1 [1]; 21 V Trap): 7.5 ms
- Intensity vs base peak (5.5 ms) of the unfolded conformer at ca 7.6 ms (FGFR1 [1]; 21 V Trap): 25.0%
- IMS-MS Drift Time of unfolded conformer (FGFR1 [1]; 24 V Trap): 7.5 ms
- Intensity vs base peak (5.5 ms) of the unfolded conformer at ca 7.6 ms (FGFR1 [1]; 24 V Trap): 40.7%

SMILES: CCCc1cc(Nc2nc(NCc3ccccn3)ncc2Br)n[nH]1 [Compound D]
- Kd for FGFR1 [2]: 36 nM
- IMS-MS Drift Time of unfolded conformer (FGFR1 [1]; 21 V Trap): 7.5 ms
- Intensity vs base peak (5.5 ms) of the unfolded conformer at ca 7.6 ms (FGFR1 [1]; 21 V Trap): 27.5%
- IMS-MS Drift Time of unfolded conformer (FGFR1 [1]; 24 V Trap): 7.7 ms
- Intensity vs base peak (5.5 ms) of the unfolded conformer at ca 7.6 ms (FGFR1 [1]; 24 V Trap): 43.2%

SMILES: CNC(=O)c1ccccc1Nc1cc(Nc2cn(C)nc2C)ncc1C(F)(F)F [Compound E]
- IMS-MS Drift Time of unfolded conformer (FGFR1 [1]; 21 V Trap): 7.5 ms
- Intensity vs base peak (5.5 ms) of the unfolded conformer at ca 7.6 ms (FGFR1 [1]; 21 V Trap): 24.2%
- IMS-MS Drift Time of unfolded conformer (FGFR1 [1]; 24 V Trap): 7.5 ms
- Intensity vs base peak (5.5 ms) of the unfolded conformer at ca 7.6 ms (FGFR1 [1]; 24 V Trap): 45.8%

SMILES: COc1ccc(C(=O)Nc2cc(-c3ccccc3)[nH]n2)cc1OC [JK-P3]
- Kd (FGFR1 [3]): 25 µM
- IMS-MS Drift Time of unfolded conformer (FGFR1 [1]; 21 V Trap): 7.5 ms
- Intensity vs base peak (5.5 ms) of the unfolded conformer at ca 7.6 ms (FGFR1 [1]; 21 V Trap): 30.8%
- IMS-MS Drift Time of unfolded conformer (FGFR1 [1]; 24 V Trap): 7.5 ms
- Intensity vs base peak (5.5 ms) of the unfolded conformer at ca 7.6 ms (FGFR1 [1]; 24 V Trap): 45.8%
- cellular activity against FGFR1 (FGFR1 [4]): cellular activity against FGFR1
- FGFR1 kinase conformation bound or induced (DFG motif orientation) (FGFR1 kinase domain): DFG in

SMILES: CN1CCN(c2ccc(NC(=O)c3n[nH]c4ccccc34)cc2)CC1 [JK-P5]
- Kd (FGFR1 [3]): 0.145 µM
- IMS-MS Drift Time of unfolded conformer (FGFR1 [1]; 21 V Trap): 7.5 ms
- Intensity vs base peak (5.5 ms) of the unfolded conformer at ca 7.6 ms (FGFR1 [1]; 21 V Trap): 22.1%
- IMS-MS Drift Time of unfolded conformer (FGFR1 [1]; 24 V Trap): 7.5 ms
- Intensity vs base peak (5.5 ms) of the unfolded conformer at ca 7.6 ms (FGFR1 [1]; 24 V Trap): 32.2%
- cellular activity against FGFR1 (FGFR1 [4]): cellular activity against FGFR1
- FGFR1 kinase conformation bound or induced (DFG motif orientation) (FGFR1 kinase domain): DFG in

SMILES: Cc1ccc(F)c(NC(=O)Nc2ccc(-c3cccc4[nH]nc(N)c34)cc2)c1 [Linifanib]
- IMS-MS Drift Time of unfolded conformer (FGFR1 [1]; 21 V Trap): 7.5 ms
- Intensity vs base peak (5.5 ms) of the unfolded conformer at ca 7.6 ms (FGFR1 [1]; 21 V Trap): 55.0%
- IMS-MS Drift Time of unfolded conformer (FGFR1 [1]; 24 V Trap): 7.7 ms
- Intensity vs base peak (5.5 ms) of the unfolded conformer at ca 7.6 ms (FGFR1 [1]; 24 V Trap): 92.8%
- FGFR1 kinase conformation bound or induced (DFG motif orientation) (FGFR1 kinase domain): DFG out

SMILES: Cc1ccc(C(=O)Nc2ccc(CN3CCN(C)CC3)c(C(F)(F)F)c2)cc1C#Cc1cnc2cccnn12 [Ponatinib]
- IMS-MS Drift Time of unfolded conformer (FGFR1 [1]; 21 V Trap): 7.9 ms
- Intensity vs base peak (5.5 ms) of the unfolded conformer at ca 7.6 ms (FGFR1 [1]; 21 V Trap): 46.7%
- IMS-MS Drift Time of unfolded conformer (FGFR1 [1]; 24 V Trap): 7.7 ms
- Intensity vs base peak (5.5 ms) of the unfolded conformer at ca 7.6 ms (FGFR1 [1]; 24 V Trap): 71.2%

SMILES: CNC(=O)c1cc(Oc2ccc(NC(=O)Nc3ccc(Cl)c(C(F)(F)F)c3)cc2)ccn1 [Sorafenib]
- IMS-MS Drift Time of unfolded conformer (FGFR1 [1]; 21 V Trap): 7.5 ms
- IMS-MS Drift Time of unfolded conformer (FGFR1 [1]; 24 V Trap): 7.5 ms
- Intensity vs base peak (5.5 ms) of the unfolded conformer at ca 7.6 ms (FGFR1 [1]; 24 V Trap): 66.1%
- Inhibitor class assigned from CIU profile (FGFR1 [1]; ESI-IMS-MS CIU profile): type II
- IC50 (FGFR1 [5]): 580 nM
